Reference: patent US20230103791A1 (GLAXOSMITHKLINE INTELLECTUAL PROPERTY DEVELOPMENT LIMITED, priority 2019, published 2023)
Like-named read-outs stand apart in the source and are kept apart here.

Biological target: T1, human Nav1.8 (Homo sapiens, UniProt Q9Y5Y9)
T1 construct: expressed in transfected cells; host or cells: HEK293 (HEK293-Nav1.8)
Experiment: Nav1.8 sodium channels assay, QPatch 48 HTX electrophysiology in HEK293-Nav1.8 cells
Type: cell-based
Summary of the method: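 HEK293 cells co-expressing human Nav1.8, Navβ1 and TREK1 were voltage-clamped on QPatch 48 HTX. The V1/2 protocol ran at 0.07 Hz: hold −100 mV, 20 ms to 0 mV, 8 s at −46 mV, 20 ms at −100 mV, then 20 ms at 0 mV (P2). P2 current was fitted over 6-8 concentrations for IC50, with vehicle wells used to correct for run-down.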

[1] = at least one set of experimental runs, read-out: average pIC50 value against Nav1.8 (converted)
[2] = Table 1, HEK293-Nav1.8, QPatch 48 HTX, half inactivation state voltage protocol (V1/2), single run or average of two or more runs, read-out: Nav1.8 pIC50 (converted)

T1 sequence (Q9Y5Y9 whole entry): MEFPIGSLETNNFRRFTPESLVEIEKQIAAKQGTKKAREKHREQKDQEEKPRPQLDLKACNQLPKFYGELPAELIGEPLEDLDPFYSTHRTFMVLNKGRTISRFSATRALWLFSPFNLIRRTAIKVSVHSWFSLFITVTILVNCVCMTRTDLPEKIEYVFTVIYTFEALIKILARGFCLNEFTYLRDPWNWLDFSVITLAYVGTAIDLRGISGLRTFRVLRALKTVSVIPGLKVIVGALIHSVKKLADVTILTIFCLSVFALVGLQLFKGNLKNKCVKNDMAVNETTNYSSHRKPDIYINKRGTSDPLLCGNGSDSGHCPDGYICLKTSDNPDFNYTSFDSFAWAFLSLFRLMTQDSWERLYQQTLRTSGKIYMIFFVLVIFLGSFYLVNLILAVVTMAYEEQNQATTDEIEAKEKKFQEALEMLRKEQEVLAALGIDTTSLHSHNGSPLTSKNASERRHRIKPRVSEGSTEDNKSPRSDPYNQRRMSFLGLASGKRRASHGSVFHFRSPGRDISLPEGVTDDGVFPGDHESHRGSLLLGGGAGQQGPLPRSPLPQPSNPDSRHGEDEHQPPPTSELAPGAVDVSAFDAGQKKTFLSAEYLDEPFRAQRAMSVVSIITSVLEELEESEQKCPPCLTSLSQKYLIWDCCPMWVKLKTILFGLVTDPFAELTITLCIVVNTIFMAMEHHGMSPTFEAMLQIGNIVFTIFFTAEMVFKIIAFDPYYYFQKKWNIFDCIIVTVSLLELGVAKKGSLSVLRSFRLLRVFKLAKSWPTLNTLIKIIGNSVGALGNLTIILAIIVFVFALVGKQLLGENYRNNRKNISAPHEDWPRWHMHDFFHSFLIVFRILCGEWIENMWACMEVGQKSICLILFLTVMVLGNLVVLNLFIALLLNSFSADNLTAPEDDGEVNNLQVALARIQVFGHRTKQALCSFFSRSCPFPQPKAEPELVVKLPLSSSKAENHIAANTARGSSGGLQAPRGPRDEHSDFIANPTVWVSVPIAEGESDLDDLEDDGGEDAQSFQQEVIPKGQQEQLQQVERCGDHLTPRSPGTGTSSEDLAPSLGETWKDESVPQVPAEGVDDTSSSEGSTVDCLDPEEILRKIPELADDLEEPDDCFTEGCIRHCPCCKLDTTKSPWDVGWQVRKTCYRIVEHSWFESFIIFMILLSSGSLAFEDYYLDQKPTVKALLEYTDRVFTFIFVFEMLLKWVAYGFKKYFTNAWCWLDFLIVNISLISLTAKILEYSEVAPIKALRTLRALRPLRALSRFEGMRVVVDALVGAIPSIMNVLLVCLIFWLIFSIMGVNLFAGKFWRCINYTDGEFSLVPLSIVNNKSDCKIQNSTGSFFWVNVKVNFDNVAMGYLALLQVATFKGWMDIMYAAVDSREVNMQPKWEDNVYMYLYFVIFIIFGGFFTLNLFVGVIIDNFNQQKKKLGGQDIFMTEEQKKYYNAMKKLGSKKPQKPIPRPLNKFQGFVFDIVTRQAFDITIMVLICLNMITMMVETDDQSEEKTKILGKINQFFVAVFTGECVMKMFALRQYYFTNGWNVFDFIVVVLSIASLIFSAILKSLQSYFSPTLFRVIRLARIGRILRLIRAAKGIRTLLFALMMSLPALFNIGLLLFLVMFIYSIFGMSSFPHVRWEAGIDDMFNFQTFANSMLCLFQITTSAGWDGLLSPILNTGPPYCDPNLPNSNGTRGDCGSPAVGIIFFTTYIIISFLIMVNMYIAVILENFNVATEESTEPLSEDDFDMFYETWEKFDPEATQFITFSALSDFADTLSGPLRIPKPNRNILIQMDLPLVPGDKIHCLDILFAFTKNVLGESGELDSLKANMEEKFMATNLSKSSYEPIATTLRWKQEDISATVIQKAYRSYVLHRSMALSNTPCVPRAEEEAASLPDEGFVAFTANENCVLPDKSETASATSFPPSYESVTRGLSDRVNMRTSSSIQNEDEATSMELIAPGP
T1 sequence (Q07699 19-218 partner): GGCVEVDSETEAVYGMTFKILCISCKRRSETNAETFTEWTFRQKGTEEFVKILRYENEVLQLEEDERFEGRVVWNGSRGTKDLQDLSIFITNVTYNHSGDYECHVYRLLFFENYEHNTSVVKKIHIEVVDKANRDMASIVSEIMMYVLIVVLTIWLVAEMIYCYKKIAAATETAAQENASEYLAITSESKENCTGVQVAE

SMILES: Cc1cc(F)ccc1N1CN(c2cc[nH]c(=O)c2C)C(=O)c2cc(C(F)(F)F)ccc21 [Example 238, 1-(4-fluoro-2-methylphenyl)-3-(3-methyl-2-oxo-1,2-dihydropyridin-4-yl)-6-(trifluoromethyl)-2,3-dihydroquinazolin-4(1H)-one]
- IC50 [1]: 794 to 7940 nM

SMILES: Cc1[nH]c(=O)ccc1N1CN(c2ccc(F)cc2C2CC2)c2ccccc2C1=O [Example 181, 1-(2-cyclopropyl-4-fluorophenyl)-3-(2-methyl-6-oxo-1,6-dihydropyridin-3-yl)-2,3-dihydroquinazolin-4(1H)-one]
- IC50 [1]: 126 to 631 nM

SMILES: Cc1[nH]c(=O)ccc1N1CN([C@@H]2CCOC[C@H]2C)c2cc(C(F)(F)F)ccc2C1=O [Example 284, 3-(2-Methyl-6-oxo-1,6-dihydropyridin-3-yl)-1-((3S,4R)-3-methyltetrahydro-2H-pyran-4-yl)-7-(trifluoromethyl)-2,3-dihydroquinazolin-4(1H)-one]
- IC50 [1]: 794 to 7940 nM

SMILES: Cc1ccccc1N1CN(c2ccc(=O)[nH]c2C)C(=O)c2ccccc21 [Example 50, 3-(2-methyl-6-oxo-1,6-dihydropyridin-3-yl)-1-(o-tolyl)-2,3-dihydroquinazolin-4(1H)-one]
- IC50 [1]: 126 to 631 nM

SMILES: Cc1cc(F)cc(C)c1N1CN(c2ccc(=O)[nH]c2)C(=O)c2ccc(C(F)(F)F)cc21 [Example 38, 1-(4-fluoro-2,6-dimethylphenyl)-3-(6-oxo-1,6-dihydropyridin-3-yl)-7-(trifluoromethyl)-2,3-dihydroquinazolin-4(1H)-one]
- IC50 [1]: 794 to 7940 nM

SMILES: Cc1[nH]c(=O)ccc1N1CN(c2ccc(F)cc2C(C)C)c2cc(C(F)F)ccc2C1=O [Example 137, 7-(difluoromethyl)-1-(4-fluoro-2-isopropylphenyl)-3-(2-methyl-6-oxo-1,6-dihydropyridin-3-yl)-2,3-dihydroquinazolin-4(1H)-one]
- IC50 [1]: ≤ 100 nM

SMILES: Cc1cc(F)ccc1N1CN(c2c[nH]c(=O)nc2N)C(=O)c2cc(C(F)(F)F)ccc21 [Example 169, 3-(4-amino-2-oxo-1,2-dihydropyrimidin-5-yl)-1-(4-fluoro-2-methylphenyl)-6-(trifluoromethyl)-2,3-dihydroquinazolin-4(1H)-one]
- IC50 [1]: 126 to 631 nM

SMILES: CCc1cc(F)ccc1N1CN(c2ccc(=O)[nH]c2C)C(=O)c2cc(Cl)ccc21 [Example 81, 6-chloro-1-(2-ethyl-4-fluorophenyl)-3-(2-methyl-6-oxo-1,6-dihydropyridin-3-yl)-2,3-dihydroquinazolin-4(1H)-one]
- IC50 [1]: ≤ 100 nM

SMILES: Cc1c[n+]([O-])ccc1N1CN(c2ccc(OC(F)(F)F)cc2C)c2cc(F)c(Cl)cc2C1=O [Example 246, 4-(6-chloro-7-fluoro-1-(2-methyl-4-(trifluoromethoxy)phenyl)-4-oxo-1,4-dihydroquinazolin-3(2H)-yl)-3-methylpyridine 1-oxide]
- IC50 [1]: ≤ 100 nM

SMILES: Cc1cc(F)ccc1N1CN(c2ccc(=O)[nH]c2C)C(=O)c2ccc(OC(F)F)nc21 [Example 241, 7-(difluoromethoxy)-1-(4-fluoro-2-methylphenyl)-3-(2-methyl-6-oxo-1,6-dihydropyridin-3-yl)-2,3-dihydropyrido[2,3-d]pyrimidin-4(1H)-one]
- IC50 [1]: 126 to 631 nM

SMILES: Cc1cnccc1N1CN(c2ccc(F)cc2C)c2cc(C(F)F)c(Cl)cc2C1=O [Example 23, 6-chloro-7-(difluoromethyl)-1-(4-fluoro-2-methylphenyl)-3-(3-methylpyridin-4-yl)-2,3-dihydroquinazolin-4(1H)-one]
- IC50 [1]: 126 to 631 nM

SMILES: Cc1cc(F)ccc1N1CN([C@@H]2CCC(=O)N[C@@H]2C)C(=O)c2ccc(C(F)(F)F)cc21 [Example 288, 1-(4-Fluoro-2-methylphenyl)-3-((2R,3R)-2-methyl-6-oxopiperidin-3-yl)-7-(trifluoromethyl)-2,3-dihydroquinazolin-4(1H)-one]
- IC50 [1]: 126 to 631 nM

SMILES: Cc1cc(F)ccc1N1CN(c2cc[nH]c(=O)c2)C(=O)c2ccc(C(F)(F)F)cc21 [drawing 309, 1-(4-fluoro-2-methylphenyl)-3-(2-oxo-1,2-dihydropyridin-4-yl)-7-(trifluoromethyl)-2,3-dihydroquinazolin-4(1H)-one]
- IC50 (Table 2, HEK293-Nav1.8, QPatch 48 HTX, half inactivation state voltage protocol (V1/2), single run or average of two or more runs, read-out: Nav1.8 pIC50 (converted)): 398 nM

SMILES: Cc1cc(F)ccc1N1CN(c2ccc(=O)[nH]c2C)C(=O)c2ccc(C#N)cc21 [drawing 299, 1-(4-fluoro-2-methylphenyl)-3-(2-methyl-6-oxo-1,6-dihydropyridin-3-yl)-4-oxo-1,2,3,4-tetrahydroquinazoline-7-carbonitrile]
- IC50 [2]: 25.1 nM

SMILES: O=C1c2ccc(C(F)(F)F)cc2N(C2CCCCC2)CN1c1ccc(=O)[nH]c1 [Example 37, 1-cyclohexyl-3-(6-oxo-1,6-dihydropyridin-3-yl)-7-(trifluoromethyl)-2,3-dihydroquinazolin-4(1H)-one]
- IC50 [1]: 794 to 7940 nM

SMILES: O=C1c2ccc(C(F)(F)F)cc2N(C2CCCCC2)CN1c1ccc(=O)[nH]c1 [drawing 263, 1-cyclohexyl-3-(6-oxo-1,6-dihydropyridin-3-yl)-7-(trifluoromethyl)-2,3-dihydroquinazolin-4(1H)-one]
- IC50 [2]: 6310 nM

SMILES: CCc1cc(F)ccc1N1CN(c2cc[n+]([O-])cc2C)C(=O)c2cc(Cl)c(F)cc21 [Example 245, 4-(6-chloro-1-(2-ethyl-4-fluorophenyl)-7-fluoro-4-oxo-1,4-dihydroquinazolin-3(2H)-y1)-3-methylpyridine 1-oxide]
- IC50 [1]: ≤ 100 nM

SMILES: Cc1cc(OC(F)(F)F)ccc1N1CN(c2ccc(=O)[nH]c2C)C(=O)c2cc(C(F)(F)F)cnc21 [Example 298, 1-(2-methyl-4-(trifluoromethoxy)phenyl)-3-(2-methyl-6-oxo-1,6-dihydropyridin-3-yl)-6-(trifluoromethyl)-2,3-dihydropyrido[2,3-d]pyrimidin-4(1H)-one]
- IC50 [1]: ≤ 100 nM

SMILES: Cc1[nH]c(=O)ccc1N1CN([C@@H]2CCCC[C@@H]2C)c2cc(C(F)(F)F)ccc2C1=O [Example 162, 3-(2-methyl-6-oxo-1,6-dihydropyridin-3-yl)-1-((1R,2S)-2-methylcyclohexyl)-7-(trifluoromethyl)-2,3-dihydroquinazolin-4(1H)-one]
- IC50 [1]: ≤ 100 nM

SMILES: Cc1cc(Br)ccc1N1CN(c2ccc(=O)[nH]c2)C(=O)c2ccc(C(F)(F)F)cc21 [Example 146, 1-(4-bromo-2-methylphenyl)-3-(6-oxo-1,6-dihydropyridin-3-yl)-7-(trifluoromethyl)-2,3-dihydroquinazolin-4(1H)-one]
- IC50 [1]: 126 to 631 nM

SMILES: CCc1cc(F)ccc1N1CN(c2ccc(=O)[nH]c2C)C(=O)c2cc(Cl)c(C#N)nc21 [Example 207, 6-chloro-1-(2-ethyl-4-fluorophenyl)-3-(2-methyl-6-oxo-1,6-dihydropyridin-3-yl)-4-oxo-1,2,3,4-tetrahydropyrido [2,3-d]pyrimidine-7-carbonitrile]
- IC50 [1]: ≤ 100 nM

SMILES: Cc1cc(F)ccc1N1CN(c2cnc(=O)[nH]c2)C(=O)c2ccc(C(F)(F)F)cc21 [drawing 306, 1-(4-fluoro-2-methylphenyl)-3-(2-oxo-1,2-dihydropyrimidin-5-yl)-7-(trifluoromethyl)-2,3-dihydroquinazolin-4(1H)-one]
- IC50 [2]: 501 nM

SMILES: Cc1cc(F)ccc1N1CN(c2ccc(=O)[nH]c2C)C(=O)c2cc(C(F)(F)F)c(C#N)cc21 [Example 111, 1-(4-fluoro-2-methylphenyl)-3-(2-methyl-6-oxo-1,6-dihydropyridin-3-yl)-4-oxo-6-(trifluoromethyl)-1,2,3,4-tetrahydroquinazoline-7-carbonitrile]
- IC50 [1]: ≤ 100 nM

SMILES: Cc1cc(F)ccc1N1CN(c2c[nH]c(=O)cn2)C(=O)c2ccc(C(F)(F)F)cc21 [Example 84, 1-(4-fluoro-2-methylphenyl)-3-(5-oxo-4,5-dihydropyrazin-2-yl)-7-(trifluoromethyl)-2,3-dihydroquinazolin-4(1H)-one]
- IC50 [1]: 794 to 7940 nM

SMILES: Cc1cc(N)ncc1N1CN(c2ccc(F)cc2C)c2ccc(C(F)(F)F)cc2C1=O [Example 277, 3-(6-Amino-4-methylpyridin-3-yl)-1-(4-fluoro-2-methylphenyl)-6-(trifluoromethyl)-2,3-dihydroquinazolin-4(1H)-one]
- IC50 [1]: 126 to 631 nM

SMILES: Cc1cc(F)ccc1N1CN(c2ccc(=O)[nH]c2C)C(=O)c2cc(F)c(OC(F)(F)F)cc21 [Example 129, 6-fluoro-1-(4-fluoro-2-methylphenyl)-3-(2-methyl-6-oxo-1,6-dihydropyridin-3-yl)-7-(trifluoromethoxy)-2,3-dihydroquinazolin-4(1H)-one]
- IC50 [1]: ≤ 100 nM

SMILES: COc1cc(F)ccc1N1CN(c2ccc(=O)[nH]c2)C(=O)c2ccc(C#N)cc21 [Example 229, 1-(4-fluoro-2-methoxyphenyl)-4-oxo-3-(6-oxo-1,6-dihydropyridin-3-yl)-1,2,3,4-tetra-hydroquinazoline-7-carbonitrile]
- IC50 [1]: 794 to 7940 nM

SMILES: COc1cc(F)ccc1N1CN(c2ccc(=O)[nH]c2C)C(=O)c2cc(Cl)ccc21 [Example 91, 6-chloro-1-(4-fluoro-2-methoxyphenyl)-3-(2-methyl-6-oxo-1,6-dihydropyridin-3-yl)-2,3-dihydroquinazolin-4(1H)-one]
- IC50 [1]: ≤ 100 nM

SMILES: Cc1[nH]c(=O)ccc1N1CN(c2ccc(F)cc2)c2ccccc2C1=O [Example 49, 1-(4-fluorophenyl)-3-(2-methyl-6-oxo-1,6-dihydropyridin-3-yl)-2,3-dihydroquinazolin-4(1H)-one]
- IC50 [1]: 794 to 7940 nM

SMILES: Cc1cc(=O)[nH]cc1N1CN(c2ccc(F)cc2C)c2ccc(C(F)(F)F)cc2C1=O [Example 179, 1-(4-fluoro-2-methylphenyl)-3-(4-methyl-6-oxo-1,6-dihydropyridin-3-yl)-6-(trifluoromethyl)-2,3-dihydroquinazolin-4(1H)-one]
- IC50 [1]: 126 to 631 nM

SMILES: Cc1cc(F)ccc1N1CN(c2ccc(=O)[nH]c2C)C(=O)c2cc(C#N)ccc21 [Example 75, 1-(4-fluoro-2-methylphenyl)-3-(2-methyl-6-oxo-1,6-dihydropyridin-3-yl)-4-oxo-1,2,3,4-tetrahydroquin-azoline-6-carbonitrile]
- IC50 [1]: 126 to 631 nM
